# Laboratory results taken from US12673081B2, “Traditional CHINESE medicine compound composition with immune bidirectional regulation effect and preparation method and applications thereof” (Chenland Nutritionals Inc., priority 2020, dated 2026).
# Key:
# [1] = tested on: guinea pig model with allergic rhinitis; test: Allergic rhinitis experiment: symptom observation (nose scratching, sneezing, symptom score) after OVA nasal instillation; assay type: in vivo; conditions: guinea pigs, gavage 28 days, D1 41, D2 45, D3 116, D4 116, D5 58, D6 116, D7 233, D8 16 mg/kg
# From the text: (§1) On the day of modeling, drugs were given by gavage. Each guinea pig was given once a day, and the Placebo group was given equal volume of drug solution every day for 4 weeks, i.e. 28 days.
# [2] = tested on: guinea pig model with allergic rhinitis; test: Allergic rhinitis experiment: number and time points of deaths in each group; assay type: in vivo; conditions: surviving guinea pigs of 10 in group; D1 41, D2 45, D3 116, D4 116, D5 58, D6 116, D7 233, D8 16 mg/kg
# From the text: 100 guinea pigs were divided into 20 cages with 5 guinea pigs in each cage. After 7 days of adaptive growth without abnormalities, 90 guinea pigs were used for the construction and induction of allergic rhinitis model, and the remaining 10 guinea pigs were used for normal control. During the whole experiment, the animals were looked after and treated in strict accordance with the animal ethics law.
# as §1
# [3] = tested on: eosinophils in nasal lavage solution; test: Counting of eosinophils in nasal lavage solution; assay type: in vivo, guinea pig; conditions: guinea pigs
# Method: (§2) 1) After scoring on the second day after the last administration, guinea pigs were anesthetized by intraperitoneal injection of 10% chloral hydrate with the anesthetic dosage of 0.35 ml/100 g;
# 2) The guinea pig was fixed in a supine and low head position, the normal saline was slowly dropped into one nasal cavity at the rate of 1 ml/min, and the contralateral nasal cavity was continuously pumped with low negative pressure;
# 3) A small amount of the recovered lavage solution was taken immediately and put into a leukocyte counting plate to count the total number of leukocytes;
# 4) The remaining lavage solution was added with EDTA ([…]) and centrifuged at 14000 rpm at 4° C. for 15 minutes. And the supernatant was stored at −80° C. for use.
# [4] = tested on: histamine, IgE, IL-4, IFN-γ, thromboxane B2 and leukotriene; test: Final plasma cytokines of guinea pigs by ELISA; assay type: in vivo, guinea pig
# Method: as §2
# 2) The abdominal cavity was opened, and a 5 ml sterile syringe was inserted into the abdominal vein of the guinea pig, and the venous blood was drawn;
# (§3) 3) The drawn venous blood was put into a heparin tube, mixed well, and left in a chromatography freezer at 4° C. overnight.
# (§4) 4) After centrifugation at 14000 rpm at 4° C. for 15 minutes, the supernatant was taken and stored at −80° C. for use.
# 1.6 The expression levels of cytokines in guinea pig serum and nasal lavage solution were detected by ELISA. The final serum and nasal lavage solution were taken for the determination of histamine, IgE, IL-4, IFN-γ, thromboxane B2 and leukotriene.
# (§5) 1) taking out the ELISA kit from the refrigerator and balancing it at room temperature for 20 min;
# (§6) 3) after sealing the film with a film sealing plate, placing it in a 37° C. incubator for incubation for 30 min;
# 4) discarding the liquid in the wells, gently spin drying it, and adding 50 μL biotin labeled antibody working solution to each well, and incubating in a 37° C. incubator for 30 min;
# (§7) 5) carefully removing the sealing film, pouring out the liquid in the wells, gently spin drying it, adding washing liquid into each well, standing at room temperature for 30 seconds and then pouring it out, repeating this operation for 5 times and gently patting it dry;
# (§8) 6) adding 50 μL horseradish peroxidase labeled avidin working solution to each well, and incubating in a 37° C. incubator for 30 min;
# (§9) 7) pouring out the liquid in the wells, gently spin drying it, adding washing liquid into each well, standing at room temperature for 30 seconds and then pouring it out, repeating this operation for 5 times and gently patting it dry; and
# 8) adding 100 μL color developing solution to each well in turn, and developing color in a 37° C. incubator without light for […];
# 9) adding […] termination solution to each well to terminate the reaction, then zeroing the blank wells and measure the absorbance (OD value) of each well at 450 nm wavelength, where the determination shall be carried out within 15 min after the termination solution is added.
# nasal mucosa = test: HE staining of final nasal mucosa of guinea pigs; assay type: in vivo, guinea pig; conditions: gavage 28 days, D1 41, D2 45, D3 116, D4 116, D5 58, D6 116, D7 233, D8 16 mg/kg
# Method: as §2
# 2) After peeling off the nasal skin, the maxilla together with the nasal cavity were removed, and the bilateral nasal cavities were completely separated from the middle incisors;
# 3) The nasal mucosa was carefully removed and fixed with 4% paraformaldehyde for HE staining;
# 4) All the HE stained pathological sections were observed under the light microscope.
# The mucosal tissues fixed in 4% glutaraldehyde solution were taken out and made into 5 μm thick paraffin sections for HE staining.
# 1) 60%, 70%, 80% and 90% gradient ethanol of the fixed sample were used to dehydrate for 8 h respectively;
# 2) 100% ethanol I and II were used to dehydrated for 1 h respectively;
# 3) The xylene I and II were used to make the specimens transparent for 15 min respectively;
# 4) The specimens were soaked in liquid paraffin and placed in a 65° C. oven for 2 h;
# 5) The soaked paraffin specimens were taken out and embedded in paraffin;
# 6) The paraffin was cut into 5 μm thick sections and subjected to HE staining.
# 1) Xylene I and II for 15 min respectively;
# 2) Gradient ethanol hydration to distilled water;
# 3) Hematoxylin staining for 5 min;
# 4) Differentiation with 1% hydrochloric acid and ethanol for 1 min; […]
# [5] = Cold model of immunocompromised rats induced by cyclophosphamide: body weight; assay type: in vivo, rat; conditions: SD rats, Sample-1 150, Sample-2 75, Sample-3/-4/-5 150, Sample-6 30 mg/kg
# From the text: (§10) […] were divided into 20 cages, 5 SD rats in each cage, 2 cages in each group, 1 cage for male and female respectively. After 7 days of adaptive growth, 70 rats were used for drug administration evaluation and the construction of rat upper respiratory tract infection model, and the remaining 10 rats were used for normal control. During the whole experiment, the animals were looked after and treated in strict accordance with the animal ethics law.
# (§11) After the adaptive growth, the drug was given by gavage once a day for each SD rat. The Placebo group and the normal control group were given the same volume of drug solution (i.e. normal saline) every day for 4 weeks, i.e. 28 days.
# (§12) 1) On the 14th day after gavage administration, rats in the model group were intraperitoneally injected with cyclophosphamide for 3 consecutive days and strengthened once on the 20th day to prepare the immunosuppressive model.
# (§13) 2) On the 21st day, after the rats were placed in a low temperature environment overnight (4° C.), the cold symptoms such as burnout, decreased food intake and increased nasal secretion were found, which was regarded as successful modeling.
# (§14) 3) During the period of normal administration, the administration was ended on the 28th day, and the rats were killed.
# (§15) The body weight of rats was measured once a week. During the administration, the general conditions, behavioral characteristics and death status of rats in each group, such as appetite, hair color and body posture, were observed. Nasal secretion and body temperature were observed ever day.
# [6] = tested on: cold model of immunocompromised rats; test: Cold model of immunocompromised rats induced by cyclophosphamide: body temperature; assay type: in vivo, rat; conditions: SD rats cold model, Sample-1 150, Sample-2 75, Sample-3/-4/-5 150, Sample-6 30 mg/kg
# From the text: as §10, §11, §12, §13, §14, §15
# [7] = tested on: IL-1β, IFN-γ, IgG, IgM, sIgA; test: Cold model rats: cytokines in serum and saliva by ELISA; assay type: in vivo, rat; conditions: SD rats cold model, gavage 28 days, Sample-1 150, Sample-2 75, Sample-3/-4/-5 150, Sample-6 30 mg/kg
# Method: 1) On the second day after the last administration, the rats were anesthetized by intraperitoneal injection of 10% chloral hydrate with the anesthetic dosage of 0.35 ml/100 g;
# 2) The abdominal cavity was opened, and a 5 ml sterile syringe was inserted into the abdominal vein of the rats, and the venous blood was drawn:
# as §3, §4
# 2) SD rats were fixed in the supine and low head position, sterile cotton swabs were inserted into the upper respiratory tract of rats, dipped in rat saliva, and immediately placed in precooled normal saline and stored at −80° C. for use.
# The final serum was used for IL-1β, IL-6, IL-12, IFN-γ, IgG, IgM, and saliva was used for the determination of sIgA. The determination steps were as follows:
# as §5, §6
# 4) discarding the liquid in the wells, gently drying it, and adding 50 μL biotin labeled antibody working solution to each well, and incubating in a 37° C. incubator for 30 min;
# as §7, §8, §9
# 8) adding […] color developing solution to each well in turn, and developing color in a 37° C. incubator without light for 15 min;
# 9) adding 50 μL termination solution to each well to terminate the reaction, then zeroing the blank wells and measure the absorbance (OD value) of each well at 450 nm wavelength, where the determination shall be carried out within 15 min after the termination solution is added.
# [8] = final plasma, gavage 28 days, D1 41, D2 45, D3 116, D4 116, D5 58, D6 116, D7 233, D8 16 mg/kg
structure (smiles),measurement,setting,value
"CCOC(=O)N1CCC(=C2c3ccc(Cl)cc3CCc3cccnc32)CC1 [D8, Loratadine]",nose scratching times decreased compared with the model group,[1],57.0%
same,sneeze times decreased compared with the model group,[1],54.4%
same,Final scoring of symptom observation,[1]; score 1-3 per Table 2,1.50 ± 0.50
same,Final number,[2],8
same,Number after enhanced sensitization,[2],8
same,Number after nasal instillation,[2],8
same,number of eosinophils in nasal lavage solution decreased compared with the model group,"[3]; D1 41, D2 45, D3 116, D4 116, D5 58, D6 116, D7 233, D8 16 mg/kg",52.2%
same,number of eosinophils in nasal lavage solution compared with the model group,"[3]; D8 16 mg/kg, p<0.01",decreased significantly
same,Number of eosinophils,"[3]; nasal lavage solution, gavage 28 days, D1 41, D2 45, D3 116, D4 116, D5 58, D6 116, D7 233, D8 16 mg/kg",3.50 ± 1.12 PCs./ml
same,Histamine,[4]; [8],23.78 ± 3.86 ng/mL
same,IFN-γ,[4]; [8],113.74 ± 12.59 pg/mL
same,IL-4,[4]; [8],138.64 ± 39.91 pg/mL
same,IgE,[4]; [8],41.86 ± 7.34 ng/mL
same,LTB4,[4]; [8],32.00 ± 6.71 ng/mL
same,TXB2,[4]; [8],24.86 ± 4.5 ng/mL
same,contents of TXB2 and TLB4 in nasal lavage solution versus model control group,[4]; p<0.05,significant difference compared with the model control group
same,serum IgE content versus model group,[4]; significantly different from model group (p<0.05),reduce the serum IgE content
same,pathological analysis of HE stained nasal mucosa,nasal mucosa,the inflammatory reaction in nasal mucosa of guinea pigs was significantly reduced
"O=C1O[C@H]([C@@H](O)CO)C(O)=C1O [Sample-6, VC]",weight week 1,[5]; week 1,200.37 ± 8.23 g
same,weight week 2,[5]; week 2,217.99 ± 12.26 g
same,weight week 3,[5]; week 3,193.64 ± 12.51 g
same,weight week 4,[5]; week 4,173.58 ± 7.48 g
same,weight week 0,"[5]; gavage once a day 28 days, week 0",184.61 ± 7.84 g
same,temperature Day 15,[6]; Day 15,36.84 ± 0.22
same,temperature Day 16,[6]; Day 16,36.78 ± 0.48
same,temperature Day 17,[6]; Day 17,36.9 ± 0.33
same,temperature Day 18,[6]; Day 18,36.6 ± 0.19
same,temperature Day 19,[6]; Day 19,36.63 ± 0.28
same,temperature Day 20,[6]; Day 20,36.69 ± 0.22
same,temperature Day 21,[6]; Day 21,36.41 ± 0.3
same,temperature Day 22,[6]; Day 22,37.89 ± 0.53
same,temperature Day 23,[6]; Day 23,38.23 ± 0.64
same,temperature Day 24,[6]; Day 24,38.11 ± 0.56
same,temperature Day 25,[6]; Day 25,37.87 ± 0.4
same,temperature Day 26,[6]; Day 26,37.41 ± 0.4
same,temperature Day 27,[6]; Day 27,37.32 ± 0.28
same,temperature Day 28,[6]; Day 28,37.62 ± 0.31
same,serum IFN-γ content,[7]; final serum,170.49 ± 21.44 pg/mL
same,serum IL-β content,[7]; final serum,100.12 ± 27.51 pg/mL
same,serum IgG content,[7]; final serum,606.77 ± 259.06 µg/mL
same,serum IgM content,[7]; final serum,177.1 ± 35.59 µg/mL
same,saliva sIgA content,[7]; upper respiratory tract saliva,13.9 ± 4.08 µg/mL
